The text below walks through data of ChEMBL document CHEMBL1135950, “Decoding region bubble size and aminoglycoside antibiotic binding” (Bioorg Med Chem Lett, 2002).

Type in all cases: nucleic-acid assay, Homo sapiens
Assay [1] has as its target Nucleic Acid. Description: Dissociation constant for binding to mitochondrial 12S rRNA construct M3 was determined.
The target of assay [2] is Nucleic Acid. Description: Dissociation constant for binding to mitochondrial 12S rRNA construct M2 was determined.
Assay [3] concerns the target Nucleic Acid. The assay can be described thus: Dissociation constant for binding to mitochondrial 12S rRNA construct M4 was determined.
For assay [4], the target named is Nucleic Acid. Description: Dissociation constant for binding to mitochondrial 12S rRNA construct M5 was determined.
Assay [5] concerns Nucleic Acid. Description: Dissociation constant for binding to mitochondrial 12S rRNA construct M1 was determined; NB= No binding.

Usually Kd stands for a measure of binding affinity in units of concentration. A higher Kd goes with lower affinity.

In the case of `NC[C@H]1O[C@H](O[C@H]2[C@H](O)[C@@H](O[C@H]3O[C@H](CO)[C@@H](O)[C@H](N)[C@H]3O)[C@H](N)C[C@@H]2N)[C@H](N)C[C@@H]1O` [TOBRAMYCIN], the Kd was found to be 430 nM at Nucleic Acid [1], 3260 nM on Nucleic Acid [2], 2910 nM on Nucleic Acid [3] and 5370 nM on Nucleic Acid [4].
For `NC[C@@H]1O[C@H](O[C@H]2[C@@H](O)[C@H](O[C@@H]3[C@@H](O)[C@H](N)C[C@H](N)[C@H]3O[C@H]3O[C@H](CN)[C@@H](O)[C@H](O)[C@H]3N)O[C@@H]2CO)[C@H](N)[C@@H](O)[C@@H]1O` [FRAMYCETIN], in that order: 120 nM, 140 nM, 160 nM and 3970 nM.
For `NC[C@H]1O[C@H](O[C@H]2[C@H](O)[C@@H](O[C@H]3O[C@H](CO)[C@@H](O)[C@H](N)[C@H]3O)[C@H](N)C[C@@H]2N)[C@H](O)[C@@H](O)[C@@H]1O` [KANAMYCIN], in that order: 2080 nM, 3460 nM, 13600 nM and 2640 nM.
For `NC[C@@H]1O[C@H](O[C@H]2[C@@H](O)[C@H](O[C@@H]3[C@@H](O)[C@H](N)C[C@H](N)[C@H]3O[C@H]3O[C@H](CO)[C@@H](O)[C@H](O)[C@H]3N)O[C@@H]2CO)[C@H](N)[C@@H](O)[C@@H]1O` [PAROMOMYCIN], in that order: 440 nM, 3830 nM, 12600 nM and 5850 nM.
For `CN(C)c1ccc2c(-c3ccc(C(=O)NCC4O[C@H](O[C@@H]5C(O)[C@H](O[C@@H]6C(O)[C@H](N)CC(N)[C@H]6O[C@H]6OC(CO)[C@@H](O)[C@H](O)C6N)O[C@@H]5CO)[C@H](N)C(O)[C@@H]4O)cc3C(=O)[O-])c3ccc(=[N+](C)C)cc-3oc2c1` (stereo partly specified), the Kd at Nucleic Acid [1] was 260 nM; in the assay with Nucleic Acid [5], “Not Active”; on Nucleic Acid [2], 270 nM; on Nucleic Acid [3], 750 nM; on Nucleic Acid [4], 330 nM.
